Results from the NIST ThermoML archive (doi:10.1021/je300533r).
Several values for one entry are separate records, joined by “and”; a condition that tells them apart may be missing. Identical values can stand only once. Numbers after ± are expanded uncertainties. Each block holds one compound with its values, some of them ahead of it.

Assay: refractive index (Na D-line) (dimensionless); wn = mass fraction of the nth substance listed
Settings: 298.15 K, 101 kPa, Liquid, Standard Abbe refractometry

refractive index (w1 = 0.0982): 1.3431 ± 0.0008
Compound: CCC(C)O (stereo unspecified) [butan-2-ol] + O

refractive index (w1 = 0.0949): 1.3413 ± 0.0008
Compound: CCCO [propan-1-ol] + O

refractive index (w1 = 0.0401): 1.3393 ± 0.0008
refractive index (w1 = 0.0452): 1.3404 ± 0.0008
refractive index (w1 = 0.0472): 1.34 ± 0.0008 and 1.3403 ± 0.0008
Compound: O=C([O-])[C@H](O)[C@@H](O)C(=O)[O-].[Na+].[Na+] [disodium L-tartrate] + O

refractive index (w1 = 0.0971): 1.3426 ± 0.0008
Compound: CC(C)(C)O [2-methylpropan-2-ol] + O
